# Data reported in ChEMBL document CHEMBL1157539, “Thousands of chemical starting points for antimalarial lead identification” (Nature, 2010).
# System: Plasmodium falciparum
# Experiment: GSK_TCMDC: Inhibition of Plasmodium falciparum 3D7 in whole erythrocytes, using parasite LDH activity as an index of growth.
# Format: functional, organism-based
# Conditions: Plasmodium falciparum, 3D7
row,Compound,XC50 [nM]
1,O=C1c2ccccc2C(=O)N1CCOc1c(Br)cc(Br)cc1CNCCCNc1cc(=O)c2ccccc2[nH]1,837
2,Nc1nc(N)c2c(Oc3cccnc3)cccc2n1,886
3,CN1CCN(c2ccnc3ccc(NC(=O)Nc4ccc(Br)cc4)cc23)CC1,92.5
4,CN(C)CCCNc1ncnc2c1[nH]c1ccc(F)cc12,732
5,O=C(/C=C/c1ccc(Cl)c(Cl)c1)NCCCCCN1CCC(NC(=O)Nc2ccc(Cl)cc2Cl)CC1,640
6,COCc1cc(C)nc2sc(C(=O)Nc3cc(C(C)(C)C)ccc3O)c(N)c12,714
7,Cc1nc(N)nc(N)c1-c1ccc(Br)cc1,232
8,Nc1ccc2[nH]cc(C3CCN(CC4CCN(C(=O)/C=C/c5ccc(Cl)c(Cl)c5)CC4)CC3)c2n1,701
9,COc1ccc(CCN(C)CCOc2ccc(NC(=O)c3cc(SC)cc4c(=O)c5ccccc5[nH]c34)cc2)cc1OC,1400
10,O=C(Nc1ccc(C(F)(F)F)cc1)c1cc(Br)cnc1NCCCn1ccnc1,968
11,O=S(=O)(NCCN1CCCC1)c1cccc(-c2cccc(CNCc3ccccc3)c2)c1,811
12,c1cc(CNCc2ccc3c(c2)OCO3)cc(-c2cccc(CNc3ccc4ncccc4c3)c2)c1,760
13,COc1ccc(Nc2ncc3c(-c4cccc(NC(=O)Cc5ccc(O)cc5)c4)c[nH]c3n2)cc1OC,570
14,Cc1ccc(C)c(Cn2ccc3nc(N)nc(N)c32)c1,301
15,CCSc1nc2sc3c(c2c(=O)n1-c1ccccc1)CCN(C)C3,457
16,CCC(C)C(COC(=O)c1cc(OC)c(OC)c(OC)c1)N(C)CCN(C)C(COC(=O)c1cc(OC)c(OC)c(OC)c1)C(C)CC (stereo not drawn),947
17,O=C(NCCCCN1CCN(c2cccc3ccccc23)CC1)c1ccc(NC(=O)c2ccc(Cl)cc2)cc1,358
18,CNC(=O)c1nc(-c2ccccc2)[nH]c1NC(C)=O,152
19,CCc1c(CCNCCCCCCNCc2ccc3c(c2CC)OCO3)ccc(OC)c1OC,246
20,Nc1nc(N)c2c(ccc3nn(S(=O)(=O)N4CCCC4)cc32)n1,96.6
21,CC(C)CCCC(C)(C)NC[C@@H](O)[C@H](Cc1ccccc1)NC(=O)c1cccc(CCC2CC2)c1,796
22,N=C(NC1CC1)c1ccc2[nH]c(CCCCCc3nc4cc(C(=N)NC5CC5)ccc4[nH]3)nc2c1,934
23,COCCn1c(-c2cccc(Cl)c2)nn(-c2ccc([N+](=O)[O-])cc2C#N)c1=S,178
24,COc1cc(C(F)(F)F)nc2c(CNCCCNc3cc(=O)c4ccccc4[nH]3)scc12,1180
25,CCOC(=O)N1CCN(C(=O)Nc2ccc(Cl)cc2)CC1,1520

row,Compound,XC50 [nM]
1,CN(C)CCc1c[nH]c2ccc(C(=O)Nc3ccc(-c4ccncc4)cc3)cc12,567
2,CCCC(=O)Nc1ccc(OCCCN(Cc2ccccc2F)c2ccc(C#N)c(C(F)(F)F)c2)cc1,595
3,COc1nc2c(CCN3CC[C@@H](NCc4cc(C#N)c5c(c4)CCO5)[C@@H](O)C3)ccnc2cc1F,1030
4,Cc1c(C(=O)Nc2cc(Sc3ccc(F)cc3)cc([N+](=O)[O-])c2)sc2ncn(Cc3ccccc3F)c(=O)c12,798
5,CCCCNCC(O)COc1ccccc1-c1ccc(N/N=C/c2cccc3ccccc23)nn1 (stereo not drawn),891
6,Cc1cc(N[C@@H](Cc2ccccc2)C(=O)NCCc2ccccc2)nc(NCc2ccccc2C)n1,879
7,CN(C)CCOc1cccc(-c2cnc(N)c(-c3nc4cc(S(C)(=O)=O)ccc4[nH]3)c2)c1,950
8,O=C(NCC1CCC1)c1cnc(Nc2cccc(Cl)c2)nc1N1CCC1,862
9,CC1(C)NC(N)=NC(=N)N1OCCCO,221
10,N#Cc1ccc2c(c1)CCN(CCC1CCC(NC(=O)Nc3cnc4ccccc4c3)CC1)C2 (stereo not drawn),768
11,COc1cc(C(=O)NC2CCc3ccccc32)cc(Cl)c1OC (stereo not drawn),1100
12,Cc1cc(NCCC(=O)Nc2ccccc2)nc(NCCc2ccc(F)cc2)n1,1130
13,Cc1ccc(-c2noc(=O)n2CC(=O)Nc2ccccc2-c2ccccc2)cc1,807
14,CCNc1nc(OCC(F)(F)F)nc(N(c2ccccc2)c2ccccc2)n1,472
15,ON=C1CCc2cc(-c3[nH]c(-c4cccc(OCCNCc5ccc(F)cc5)c4)nc3-c3ccncc3)ccc21,890
16,O=S(=O)(Nc1ccc(CCN2CCC(N3CCCCC3)CC2)cc1)c1ccccc1C(F)(F)F,1020
17,COc1cccc2c(NCc3ccccc3)nc(NCCCN3CCCCC3C)nc12 (stereo not drawn),911
18,COc1ccc(C2CC(c3cccs3)=NN2C(=O)c2ccco2)cc1OC (stereo not drawn),172
19,NCCCNc1ccnc2cc(Cl)ccc12,305
20,CCc1ccc(CN2CCC(CNC(=O)c3cc(-c4ccccc4Cl)cs3)C2)cc1 (stereo not drawn),1430
21,c1ccc2[nH]c(CN(Cc3nc4ccccc4[nH]3)Cc3nc4ccccc4[nH]3)nc2c1,668
22,CCc1ccc(CN2CCC(NC(=O)c3ccc(-c4ccccc4F)s3)CC2)cc1,1490
23,Cc1cc(Nc2ccc(C)c(Cl)c2)n2ncnc2n1,552
24,CCCn1c(O)nnc1SCC(=O)Nc1cc(C(F)(F)F)ccc1Cl,222
25,CN1CCN(c2ccc3nccc(CCN4CCC(NCc5ccc6c(n5)NC(=O)CO6)CC4)c3n2)CC1,824

row,Compound,XC50 [nM]
1,Cc1cc(N[C@@H](CC(C)C)C(=O)NCCOc2ccccc2)nc(NCCc2ccccc2)n1,1510
2,COc1cc2nc(NCCc3cccc(Cl)c3)nc(NCc3ccccc3)c2cc1OC,124
3,CC(C)NCc1cccc(-c2ccc(NC(=O)c3ccc(C#N)cc3)cc2)c1,825
4,COc1ccc2nccc([C@@H](O)CN3CCC(NCc4cc5ccccc5cn4)CC3)c2n1,918
5,COCCNCc1cccc(-c2ccc(CNC3CCN(Cc4ccccc4)CC3)cc2)c1,508
6,O=[N+]([O-])c1ccc(N/C(=N\c2ccccc2Br)NC2CCCc3ccccc32)c(O)c1 (stereo not drawn),919
7,O=C(/C=C/c1ccc(C(F)(F)F)cc1)NCCCCCN1CCC(c2c[nH]c3ccccc23)CC1,683
8,Cc1cc(F)ccc1Nc1nc(N(C)c2ccccc2)c2cccc(O)c2n1,957
9,CC(=O)c1c(C)[nH]c(C(=O)Nc2ccc(-c3nc4ccc(C)cc4s3)cc2)c1C,837
10,C[C@@H](Oc1cc(-n2cnc3ccc(NC(=O)CCN4CCCCC4)cc32)sc1C(N)=O)c1ccccc1Cl,991
11,COc1ccccc1-c1cccc2c(NC(=O)Nc3ccc4nccc(N5CCN(C)CC5)c4c3)ccnc12,1000
12,COc1ccc2c(c1)c(C1CCN(CCCCNC(=O)c3ccc(-c4ccc(C(F)(F)F)cc4)cc3)CC1)cn2C(C)C,729
13,Cc1nc2c(s1)c(=O)cc(CCc1cccc(F)c1F)n2CC(=O)N(Cc1ccc(-c2ccc(C(F)(F)F)cc2)cc1)C1CCN(C(C)C)CC1,767
14,Nc1nc(N)c2c(ccc3c2ccn3CCCCO)n1,117
15,c1ccc(C(OCCC2CCN(Cc3cccc4cccnc34)CC2)c2ccccc2)cc1,874
16,COc1ccc(OC)c(C=CC(=O)NC2CCC(CN3CCC(c4c[nH]c5ccccc45)CC3)CC2)c1 (stereo not drawn),653
17,CC(C)c1ccc(NC(=O)NCCCC2CCCN(CCCCCNC(=O)/C=C/c3ccc(Cl)c(Cl)c3)C2)cc1 (stereo not drawn),957
18,CN1CCN(c2ccc(Nc3c(C(N)=O)cnc4cc(-c5ccoc5)ccc34)cc2C(F)(F)F)CC1,785
19,C=CCN(C(=O)c1ccc(Cl)c([N+](=O)[O-])c1)c1nc(-c2ccccc2)cs1,398
20,Cc1cc(N[C@@H](CC(C)C)C(=O)NCCc2ccccc2)nc(Nc2ccccc2)n1,816
21,COc1cccc(CCN(Cc2ccccc2-c2ccc(CNC3CC(C)(C)NC(C)(C)C3)cc2)C(=O)NC2CCCCC2)c1,932
22,COc1ccc2ccccc2c1C=NN=c1cc(C)[nH]c2c(C)cccc12,818
23,CCOC(=O)C1CCN(CCCNC(=O)/C(=C/C=C/c2cc3cc(Cl)c(Cl)cc3[nH]2)OC)CC1,1040
24,CC(=O)N(Cc1cccc(-c2cccc(CNCCc3ccccc3)c2)c1)C1CCN(Cc2ccccc2)CC1,670
25,O=C(Nc1ccc(CN2CCN(S(=O)(=O)c3ccc(Cl)s3)CC2)cc1)c1cccs1,894

row,Compound,XC50 [nM]
1,N=c1cc(C=Cc2ccc(O)cc2)[nH]c2ccccc12,993
2,COc1ccc(Nc2nccc(-c3ccc(NC(=O)c4cc5cc(F)ccc5[nH]4)cc3)n2)cc1,630
3,Cc1cc(=NN=Cc2ccc(Cl)cc2)c2ccc(F)cc2[nH]1,757
4,C=CCNC(CCCCC)c1ccc(OCCOc2ccc(C(CCCCC)NCC=C)cc2)cc1 (stereo not drawn),567
5,CC(C)c1ncc(-c2ccncc2)c(C2CCC(CNC(=O)c3ccncc3)CC2)n1 (stereo not drawn),1350
6,CCn1c(-c2nonc2N)nc2c(-c3cccc(NC(=O)Nc4cccc(C(F)(F)F)c4)c3)ncc(OCCCN)c21,969
7,Cc1cc(NC(=O)c2ccco2)ccc1OC1CCN(Cc2ccc(C#N)cc2)CC1,497
8,COc1cccc(CN2CCCN(Cc3cccc(NC(=O)c4cc5ccccc5s4)c3)CC2)c1,1010
9,CC(C)CNCc1cccc(-c2ccc(CN(C(=O)Nc3ccccc3)C3CCN(Cc4ccccc4)CC3)cc2)c1,476
10,Cc1nc2nc(N)nc(N)c2c(C)c1Cc1ccc(N)cc1,644
11,OCCN1CCN(Cc2cccc(-c3ccc(-c4nc5cc(C(F)(F)F)ccc5[nH]4)cc3)c2)CC1,559
12,COc1ccc(CCNCCCCCCNCCc2ccc(Cl)c3ccccc23)cc1OC,580
13,CN1CCC[C@H]1COc1ccc(CN2CC[C@H](NC(=O)c3ccc(Cl)c(Cl)c3)C2)cc1Br,983
14,COc1ccc(NC(=O)[C@H](C)Nc2cc(C)nc(NCC3CCCCC3)n2)cc1,1280
15,O=c1[nH]c2c(cc1CNC1CCCCC1)c(-c1cccc(F)c1)nn2-c1ccccc1,945
16,NS(=O)(=O)c1cccc(-c2ccc3ncc(N4CCOCC4)nc3c2)c1,987
17,CCCc1c(C(=O)OCC)c2cc(O)ccc2n1-c1ccc(OC)cc1,138
18,O=C(Nc1ccc2ccccc2c1)c1ccc(CN2CCC(Cc3ccccc3)CC2)cc1,876
19,COc1ccc(NC(=O)c2ccc(OCCCCCCCOc3ccc(C(=O)Nc4ccc(OC)c(N5CCN(C)CC5)c4)cc3)cc2)cc1N1CCN(C)CC1,598
20,c1ccc(Oc2ccc(Nc3ccnc(Nc4cccc(CNCCCN5CCOCC5)c4)n3)cc2)cc1,1040
21,COc1cccc(C2=CC(c3ccccc3)n3ncc(C(=O)Nc4ccc(Cl)cc4)c3N2)c1 (stereo not drawn),1060
22,Cc1cc(C(=O)CN2C(=O)NC3(CCOc4ccccc43)C2=O)c(C)n1Cc1ccc(F)cc1 (stereo not drawn),881
23,Cc1cccc2nc(-c3ccc(-c4cccc(C(=O)NCCc5cn(C)cn5)c4)s3)[nH]c12,877
